row,melting point [°C],SMILES
1,74 to 75,O=C(Nc1cccc(F)c1)c1cccc(Oc2cccc(C(F)(F)F)c2)n1
2,126 to 128,CSCCN1C(=O)c2ccccc2Oc2nc(Cl)ccc21
3,206 to 210,O=Cc1cn(C2CCc3ccccc3C2)c(=S)[nH]1 (stereo not drawn)
4,220 to 222,COC(=O)COc1ccc(C(=O)NNC(=O)c2ccc(C#N)cc2)cc1
5,92.5 to 94.5,CCN(CC)CCOc1ccn2nc(-c3ccccc3)c(-c3ccc(=O)n(C(C)C)n3)c2c1
6,72 to 73,O=c1ccoc2cc(OCCCCl)ccc12
7,133 to 135,Cc1c(CP(=O)(OCCCl)OCCCl)cc(C(C)(C)C)c(O)c1C
8,173 to 174,Brc1cccc2[nH]cc(Cc3cccnc3)c12
9,133 to 136,CN(C)CCc1c(CC(C#N)(c2ccccc2)c2ccccc2)c2ccccc2n1C
10,112 to 115,CSC1CC(c2cc(Cl)c(C)c(Cl)c2)=NNC1=O (stereo not drawn)
11,116 to 120,CCOC(=O)C1CNC(=O)CC1c1ccc(F)cc1 (stereo not drawn)
12,81 to 83,CN1C(C)(C#N)CCC1(C)C#N (stereo not drawn)
13,158 to 159,Cc1c(NC(=O)c2ccc(OC[C@@H]3CCCO3)cc2)ccc2cc(CNC3CCOCC3)cnc12
14,181 to 182,Cc1ccc(C(=O)NC(NC(=S)Nc2cccc([N+](=O)[O-])c2)C(C)(C)C)cc1 (stereo not drawn)
15,216 to 220,CON1C=C2N=NC3=C(N2C1)N(c1ccccn1)CC(C)=C3
16,99 to 101,Nc1ccccc1C(=O)c1ccc(OCc2ccccc2)cc1
17,237 to 239,CC(C)(C)CN(NC(=O)c1ccccc1)C(=O)c1ccccc1
18,80 to 82,Nc1cccc(OCc2ccccc2)c1NC(=O)c1ccc(OCc2ccccc2)c(C23CC4CC(CC(C4)C2)C3)c1
19,103,Cc1ccc(CN2CCN(c3cc(-c4ccccc4)ccn3)CC2)cc1

row,melting point [°C],SMILES
1,102,COC(=O)CS(=O)(=O)CCCCCn1nc(-c2ccccc2)c(-c2ccccc2)c1-c1ccccc1
2,172 to 175,Cc1cc(F)ccc1-c1nc(OCCO)nc2c1CNC(=O)N2c1c(F)cccc1F
3,86 to 87,CC1CCN(C(=O)c2ccc3nonc3c2)CC1
4,136,CCCOc1ccc(C(=O)C=CC(=O)O)cc1OC
5,209,Cc1cc2cc(CN3CCCCCC3)cnc2cc1NC(=O)c1ccc(-c2ccc(Cl)cc2)cc1F
6,173 to 174,COc1ccc(-n2nccc2-c2nn(-c3cccc(C(F)(F)F)c3)ccc2=O)cc1
7,156 to 168,Nc1nc2c(ncn2CCC(CO)COC(=O)c2ccccc2)c(=O)[nH]1 (stereo not drawn)
8,195 to 196,CCCCCCCCOc1ccc(C(=O)NNc2nc(NNC(=O)c3ccc(OCCCCCCCC)cc3O)nc(N(CCC)CCC)n2)c(O)c1
9,170 to 172,CCOC(=O)c1cn(CC)c2nn(C)cc2c1=O
10,210,CC(=O)Nc1cc2c(cc1Oc1ccc(F)cc1F)CCC2=O
11,119 to 120,Cc1cccc(C(=O)Cc2ccnc(N)c2)c1
12,260 to 261,CC1CC(=O)NN=C1c1ccc2[nH]c(CCCN3C(=O)c4ccccc4C3=O)nc2c1 (stereo not drawn)
13,216 to 219,CC(C)(C)OC(=O)Nc1ccn2nc(N3CCCC3)nc2c1
14,80 to 81,Fc1ccc([C@H]2CC[C@H](N3CCC(Cc4cc(F)ccc4F)CC3)CC2)cc1
15,85 to 97,CNC(=O)c1ccc(Nc2nc(Nc3cc4c(cc3OC)CCN(C(COC)COC)CC4)ncc2Cl)c(OC)c1
16,84 to 86.5,COc1ccc([C@@H]2CCCC[C@@H]2[N+](=O)[O-])cc1OC (racemic)
17,252 to 254,CCCCNc1ccc(-c2c(N)nc(N)nc2CC)cc1[N+](=O)[O-]
18,192 to 195,COc1cc(-n2c(-c3ccc(SC)cc3)nc(SC)c(C#N)c2=O)cc(OC)c1OC
19,174,CC(=O)N[C@@H](C)COc1ccc2nc(-c3ccc(OCC4CC4)c(F)c3)oc2c1
